Measurements taken from ChEMBL document CHEMBL1148569, “Aza-analogues of the marine pyrroloquinoline alkaloids wakayin and tsitsikammamines: synthesis and topoisomerase inhibition” (Bioorg Med Chem Lett, 2006).
The source made the active and inactive calls. No cut-off for these calls is given here.

What was measured:
[1] = target: DNA topoisomerase II (Homo sapiens) (UniProt P11388+Q02880); assay: Inhibition of Topoisomerase 2 mediated DNA cleavage activity in a cell free assay at 100 uM; type: protein assay
[2] = target: T1, DNA topoisomerase 1 (Homo sapiens) (UniProt P11387); assay: Inhibition of Topoisomerase 1 mediated DNA cleavage activity in a cell free assay at 100 uM
T1 sequence (whole entry): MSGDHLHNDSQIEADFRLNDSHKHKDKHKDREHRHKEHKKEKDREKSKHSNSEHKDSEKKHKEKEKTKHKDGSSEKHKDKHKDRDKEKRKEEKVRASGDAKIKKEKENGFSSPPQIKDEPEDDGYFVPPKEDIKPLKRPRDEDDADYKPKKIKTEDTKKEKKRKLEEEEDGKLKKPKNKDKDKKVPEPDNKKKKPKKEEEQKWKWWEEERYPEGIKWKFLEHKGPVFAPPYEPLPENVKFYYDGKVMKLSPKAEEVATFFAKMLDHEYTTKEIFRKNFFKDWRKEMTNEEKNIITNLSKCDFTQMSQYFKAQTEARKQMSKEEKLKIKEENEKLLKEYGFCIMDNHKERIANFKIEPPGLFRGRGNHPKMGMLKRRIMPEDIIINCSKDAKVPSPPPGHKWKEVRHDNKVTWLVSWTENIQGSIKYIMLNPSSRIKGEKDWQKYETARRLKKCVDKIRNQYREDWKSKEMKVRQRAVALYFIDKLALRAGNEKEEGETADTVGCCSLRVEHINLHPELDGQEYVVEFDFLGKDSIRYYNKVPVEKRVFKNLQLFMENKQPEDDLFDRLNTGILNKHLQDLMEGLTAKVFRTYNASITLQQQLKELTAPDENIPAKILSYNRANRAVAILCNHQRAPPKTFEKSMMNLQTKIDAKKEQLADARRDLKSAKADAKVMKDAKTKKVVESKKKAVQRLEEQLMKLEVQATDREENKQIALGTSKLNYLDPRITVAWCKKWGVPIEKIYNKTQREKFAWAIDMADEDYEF

Activity [1]	Activity [2]	Compound
inactive	inactive	O=C1c2cc[nH]c2C2=NCCc3n[nH]c1c32
inactive	Active	O=C1c2[nH]ccc2C2=NCCc3n[nH]c1c32
